The nature of data set [1]: Amlodipine content in supernatant of amlodipine salt batches (0.45 micron filtration, HPLC). Type of data set: physicochemical. The following applies: batches prepared by mixing; ~10-fold molar salt forming agent; polysorbate 80 in water. How it is done: Amlodipine salts were prepared according to the formulas in Table 1 and Table 2. The formulations in Table 1 were prepared by adding purified water to a glass container containing a magnetic stir-bar and mixing with an external magnetic stir-plate. The polysorbate 80 was added and allowed to dissolve with mixing for a minimum of 10 minutes. Amlodipine besylate was then added and dispersed in the solution with mixing for a minimum of 10 minutes. The salt forming agent was then added to the suspension and the resulting suspension was mixed for an additional 30 minutes. The amount of the added salt forming agent was approximately 10-fold the amount of amlodipine on a mole basis. A control formulation was prepared to provide a solubility value for amlodipine besylate.
The formulations in Table 2 were prepared by adding purified water to a glass container positioned in an ultrasonic bath. Mixing was initiated with an overhead mixer and impeller. The polysorbate 80 was added and allowed to dissolve with mixing for a minimum of 10 minutes. Amlodipine besylate was then added and dispersed in the solution with mixing for a minimum of 10 minutes. […]
An aliquot of each suspension was filtered through a 0.45 micron nylon filter and the supernatant analyzed by an HPLC method for amlodipine content. […] Detection was by UV absorbance at 237 nm.

The nature of data set [2]: Soluble amlodipine in isolated solids (purified water, pH 5.3, tumbled 66 hours, HPLC). The following applies: pH 5.3, aqueous buffer, thermodynamic from solid. It is filed as physicochemical. How it is done:
Batches 1A-1F had different amlodipine content in the supernatants than the amlodipine besylate control indicating formation of new salt forms. […] Aliquots of each solid were weighed into 15 mL polypropylene centrifuge tubes in duplicate except for batch 1A which was a single determination. Purified water was added to each tube and the pH of the resulting suspension adjusted to 5.3 with anhydrous citric acid or anhydrous sodium citrate powder as needed. A control was also prepared in duplicate containing only purified water and amlodipine besylate at pH 5.3. The tubes were capped, covered in foil to block light, and allowed to tumble end-over-end at ambient temperature for 66 hours. The suspensions were then filtered through 0.45 micron nylon filters and the resulting filtrates analyzed by HPLC for amlodipine content.

By solubility is commonly meant the concentration that dissolves in the medium under given conditions.

On to `CCOC(=O)C1=C(COCCN)NC(C)=C(C(=O)OC)C1c1ccccc1Cl` (stereo not drawn) [Control, Amlodipine besylate], for which, in data set [1], the “Amlodipine content in supernatant” value was found to be 4.80 mg/mL. The solubility at 66 h in data set [2] (Tube 1, pH adjusted to 5.3, ambient temperature) was found to be 1080 µg/mL; in data set [2] (Tube 2, pH adjusted to 5.3, ambient temperature) it was 1080 µg/mL.

The values are drawn from US12383498B2, “Amlodipine formulations” (Azurity Pharmaceuticals, Inc., priority 2018, dated 2025).
